Reference: ChEMBL document CHEMBL1129121, “Design, synthesis and binding affinities of novel non-peptide mimics of somatostatin/sandostatin” (Bioorg Med Chem Lett, 1996)

Each molecule was assayed against Somatostatin receptor (assay: Compound was tested for its potency to displace 3-[125I]- - Tyr11-SRIF-14 from somatostatin receptor on membranes of rat cerebral cortex).
Assay type: tissue-based
Molecule `NCCCCCCNC[C@H]1[C@@H](OCc2ccccc2)C(OCc2ccccc2)[C@H](CO)N1CCc1c[nH]c2ccccc12` (stereo partly specified) has an IC50 of 14 µM. Molecule `NCCCCCCN1CC2[C@@H](OCc3ccccc3)[C@H](OCc3ccccc3)[C@H](C1)N2CCc1c[nH]c2ccccc12` has an IC50 of 12 µM. In the case of `NCCCCCCNC[C@H]1C(OCc2ccccc2)[C@H](OCc2ccccc2)[C@H](O)CN1CCc1c[nH]c2ccccc12` (stereo partly specified), the IC50 is reported as 12 µM. Work on `NCCCCCCN[C@H]1CN(CCc2c[nH]c3ccccc23)[C@@H](CO)C(OCc2ccccc2)[C@@H]1OCc1ccccc1` (stereo partly specified) yielded an IC50 of 11 µM. In the case of `NCCCCCCNC[C@@H]1CN(CCc2c[nH]c3ccccc23)C[C@@H](O)[C@@H](OCc2ccccc2)[C@@H]1OCc1ccccc1`, the IC50 is reported as 10 µM. `NCCCCCCN1CC2[C@@H](OCc3ccccc3)[C@H](OCc3ccccc3)C1CN2CCc1c[nH]c2ccccc12` (stereo partly specified) was tested, and the IC50 was 15 µM.
